Reference: patent publication US12371454B2, “Cyclic peptide compound having Kras inhibitory action” (priority 2019, dated 2025)
pIC50: −log10 of the molar value. Starred links: 1 amine or outer side, 2 acyl side, 3 side chain; linkers in the order of their positions; H or OH if unused. Positions of bridges follow the written chain, without caps; N, C: chain ends. Non-standard residues stand in square brackets, D forms with d. Residues, ends and D or L forms follow the SMILES beside them. *: point of attachment. hPhe(3-Cl-4-CF3) = N[C@@H](CCc1ccc(C(F)(F)F)c(Cl)c1)C(=O)O; hPhe(4-CF3) = N[C@@H](CCc1ccc(C(F)(F)F)cc1)C(=O)O; NMePhe(4-Cl) = CN[C@@H](Cc1ccc(Cl)cc1)C(=O)O; NMePhe(4-Me) = CN[C@@H](Cc1ccc(C)cc1)C(=O)O; NMeNle(6-CHF2) = CN[C@@H](CCCCC(F)F)C(=O)O; NMedβ3hAla = C[C@H](CC(=O)[*:2])N(C)[*:1]; NMeGly(cPent) = CN[C@H](C(=O)O)C1CCCC1; Phe(3-I) = N[C@@H](Cc1cccc(I)c1)C(=O)O; Pro(4,4-F2) = O=C(O)[C@@H]1CC(F)(F)CN1; NMeGly(cBu) = CN[C@H](C(=O)O)C1CCC1; NMeCha = CN[C@@H](CC1CCCCC1)C(=O)O; NMeChg = CN[C@H](C(=O)O)C1CCCCC1; NMeF = CN[C@@H](Cc1ccccc1)C(=O)O; N(CH2CH2)2CF2 = FC1(F)CCN(*)CC1; NMeβAla = CN(CCC(=O)[*:2])[*:1]; NMeD = CN[C@@H](CC(=O)O)C(=O)O; NMeL = CN[C@@H](CC(C)C)C(=O)O; Cba = N[C@@H](CC1CCC1)C(=O)O; NMeV = CN[C@H](C(=O)O)C(C)C; d(β3hA) = C[C@@H](N)CC(=O)O; Azetidin(1-yl) = C1CN(*)C1; NMeA = CN[C@@H](C)C(=O)O; NMeAib = CNC(C)(C)C(=O)O; Piperidide = C1CCN(*)CC1; Pyrrolidide = C1CCN(*)C1; Ac5c = NC1(C(=O)O)CCCC1; Aze = O=C(O)[C@@H]1CCN1; X47 = Fc1cncc(C*)c1; βAla = NCCC(=O)O; Sar = CNCC(=O)O

target: T1, Kras and SOS1 (biotin-tagged human Kras loaded with GDP, His-tagged human SOS1) (Homo sapiens, UniProt P01116, G12D); experiment: Protein-protein interaction inhibition between Kras and SOS1 (KrasGl2D-SOS PPI) using AlphaScreen; format: binding; settings: AlphaScreen; biotin-tagged human Kras loaded with GDP, His-tagged human SOS1; read-out: KRAS G12D-SOS PPI IC50
T1 construct: made in house; host or cells: E. coli (stated for Kras only)
T1 sequence (P01116 1-188 isoform P01116-2 G12D): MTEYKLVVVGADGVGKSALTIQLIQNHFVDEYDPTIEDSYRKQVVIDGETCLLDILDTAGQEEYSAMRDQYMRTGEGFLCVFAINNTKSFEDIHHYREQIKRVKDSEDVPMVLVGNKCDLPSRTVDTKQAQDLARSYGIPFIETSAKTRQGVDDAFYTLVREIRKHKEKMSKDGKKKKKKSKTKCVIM
How it was run: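 Energy transfer from nickel-chelate donor beads bound to His-SOS1 to streptavidin acceptor beads bound to biotin-Kras, expressed in E. coli and loaded with GDP after purification, was monitored. Donors were excited at 680 nm; singlet oxygen reaching acceptors gave emission read at 520-620 nm.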

Compound	pIC50
CC[C@H](C)[C@@H]1NC(=O)[C@H](CC(C)C)N(C)C(=O)C[C@@H](C(=O)N2CCC2)N(C)C(=O)[C@H](C2CCCC2)N(C)C(=O)C2(CCCC2)NC(=O)[C@H](CC(=O)N2CCC(F)(F)CC2)N(C)C(=O)[C@H](CCc2ccc(C(F)(F)F)c(Cl)c2)NC(=O)CN(C)C(=O)[C@H](CC2CCCCC2)N(C)C(=O)[C@@H]2CCN2C(=O)[C@H](C)N(C)C1=O [Compound 719] ([NMeL]I[NMeA][Aze][NMeCha][Sar][hPhe(3-Cl-4-CF3)][NMeD](N(CH2CH2)2CF2)[Ac5c][NMeGly(cPent)][NMeD]-{Azetidin(1-yl)}; lactam N-11)	8.23
CC[C@H](C)[C@@H]1NC(=O)CCN(C)C(=O)CN(C)C(=O)[C@H](C2CCCC2)N(C)C(=O)C2(CCCC2)NC(=O)[C@@H]2CCCN2C(=O)[C@H](CCc2ccc(C(F)(F)F)c(Cl)c2)NC(=O)CN(C)C(=O)[C@H](CC2CCCCC2)N(C)C(=O)CN(C)C(=O)CN(C)C1=O [Compound 369] (cyclo([Ac5c][NMeGly(cPent)][Sar][NMeβAla]I[Sar][Sar][NMeCha][Sar][hPhe(3-Cl-4-CF3)]P))	6.46
CC[C@H](C)[C@@H]1NC(=O)[C@H](CC(C)C)N(C)C(=O)C[C@@H](C)N(C)C(=O)[C@H](CC(C)C)NC(=O)C(C)(C)N(C)C(=O)[C@H](CC(C)C)NC(=O)[C@H](CCc2ccc(C(F)(F)F)c(Cl)c2)NC(=O)CN(C)C(=O)[C@H](Cc2ccc(C)cc2)N(C)C(=O)[C@@H]2CCN2C(=O)[C@H](C)N(C)C1=O [Compound 1379] (cyclo([Aze][NMePhe(4-Me)][Sar][hPhe(3-Cl-4-CF3)]L[NMeAib]L[NMedβ3hAla][NMeL]I[NMeA]))	7.19
CC(C)C[C@H]1C(=O)N[C@@H](CC2CCC2)C(=O)N(C)CC(=O)N(C)CC(=O)N(C)[C@@H](CC2CCCCC2)C(=O)N(C)CC(=O)N[C@@H](CCc2ccc(C(F)(F)F)c(Cl)c2)C(=O)N2CCC[C@H]2C(=O)NC2(CCCC2)C(=O)N(C)[C@@H](C(C)C)C(=O)N[C@H](C)CC(=O)N1C [Compound 290] (cyclo([Ac5c][NMeV][d(β3hA)][NMeL][Cba][Sar][Sar][NMeCha][Sar][hPhe(3-Cl-4-CF3)]P))	6.80
CC[C@H](C)[C@@H]1NC(=O)[C@H](C)N(C)C(=O)C[C@@H](C(=O)N2CCCC2)NC(=O)[C@H](CC(C)C)N(C)C(=O)[C@H](CCCCC(F)F)N(C)C(=O)[C@H](CC(C)C)NC(=O)[C@H](CCc2ccc(C(F)(F)F)cc2)NC(=O)CN(C)C(=O)[C@H](Cc2ccc(Cl)cc2)N(C)C(=O)CN(C)C(=O)CN(C)C1=O [Compound 779] ([NMeA]I[Sar][Sar][NMePhe(4-Cl)][Sar][hPhe(4-CF3)]L[NMeNle(6-CHF2)][NMeL]D-Pyrrolidide; lactam N-11)	6.80
CC[C@H](C)[C@@H]1NC(=O)[C@H](C)N(C)C(=O)C[C@@H](C(=O)N2CCCCC2)N(C)C(=O)[C@H](C(C)C)N(C)C(=O)C2(CCCC2)NC(=O)[C@@H]2CCCN2C(=O)[C@H](CCc2ccc(C(F)(F)F)c(Cl)c2)NC(=O)CN(C)C(=O)[C@H](CC2CCCCC2)N(C)C(=O)[C@@H]2CCCN2C(=O)CN(C)C1=O [Compound 1121] ([NMeA]I[Sar]P[NMeCha][Sar][hPhe(3-Cl-4-CF3)]P[Ac5c][NMeV][NMeD]-Piperidide; lactam N-11)	8.85
CC[C@H](C)[C@@H]1NC(=O)[C@H](C)N(C)C(=O)C[C@@H](C(=O)N2CCCC2)NC(=O)[C@H](CC(C)C)N(C)C(=O)[C@H](Cc2ccccc2)N(C)C(=O)[C@H](COCc2cncc(F)c2)NC(=O)[C@H](CCc2ccc(C(F)(F)F)cc2)NC(=O)CN(C)C(=O)[C@H](Cc2ccc(Cl)cc2)N(C)C(=O)CN(C)C(=O)CN(C)C1=O [Compound 513] ([NMeA]I[Sar][Sar][NMePhe(4-Cl)][Sar][hPhe(4-CF3)]S(X47)[NMeF][NMeL]D-Pyrrolidide; lactam N-11)	7.34
CC[C@H](C)[C@@H]1NC(=O)CCNC(=O)[C@H](Cc2ccccc2)N(C)C(=O)[C@H](C2CCCCC2)N(C)C(=O)C2(CCCC2)NC(=O)[C@@H]2CCCN2C(=O)[C@H](CCc2ccc(C(F)(F)F)c(Cl)c2)NC(=O)CN(C)C(=O)[C@H](CC2CCCCC2)N(C)C(=O)CN(C)C(=O)CN(C)C1=O [Compound 1007] (cyclo([Ac5c][NMeChg][NMeF][βAla]I[Sar][Sar][NMeCha][Sar][hPhe(3-Cl-4-CF3)]P))	7.89
CC[C@H](C)[C@@H]1NC(=O)[C@H](C2CCC2)N(C)C(=O)C[C@@H](C(=O)N2CCCC2)N(C)C(=O)[C@H](C2CCCCC2)N(C)C(=O)C2(CCCC2)NC(=O)[C@@H]2CC(F)(F)CN2C(=O)[C@H](CCc2ccc(C(F)(F)F)c(Cl)c2)NC(=O)CN(C)C(=O)[C@H](CC2CCCCC2)N(C)C(=O)CN(C)C(=O)CN(C)C1=O [Compound 1363] ([NMeGly(cBu)]I[Sar][Sar][NMeCha][Sar][hPhe(3-Cl-4-CF3)][Pro(4,4-F2)][Ac5c][NMeChg][NMeD]-Pyrrolidide; lactam N-11)	9.24
CC[C@H](C)[C@@H]1NC(=O)[C@H](CC(C)C)N(C)C(=O)C[C@@H](C(=O)N2CCCCC2)N(C)C(=O)[C@H](CC(C)C)NC(=O)C(C)(C)N(C)C(=O)[C@H](Cc2ccc(OC)cc2)NC(=O)[C@H](Cc2cccc(I)c2)NC(=O)CN(C)C(=O)[C@H](CC2CCCCC2)N(C)C(=O)CN(C)C(=O)CN(C)C1=O [Compound 320] ([NMeL]I[Sar][Sar][NMeCha][Sar][Phe(3-I)]Y(Me)[NMeAib]L[NMeD]-Piperidide; lactam N-11)	8.00
